Values quoted from earlier work as cited in patent US20250129016A1, “[…] FOR RADI[…] ARENES AND USE THEREOF” (THE UNIVERSITY OF NORTH CAROLINA AT CHAPEL HILL, priority 2023, published 2025).

Conditions: previously reported

Compound: COc1cc2c(c(OC)c1OC)-c1ccc(OC)c(=O)cc1[C@@H](NC(C)=O)CC2 [39a, Colchicine]
- route of excretion: excreted primarily through the biliary system, intestines, and kidneys
